Patent publication US20210170033A1, “NOVEL CONJUGATES OF A PHARMACEUTICAL AGENT AND A MOIETY CAPABLE OF BINDING TO A GLUCOSE SENSING PROTEIN” (SANOFI, priority 2017, published 2021)
Like-named read-outs stand apart in the source and are kept apart here.

Experiments:
[1] = tested on: A2780 Human Carcinoma Cells; test: Glucose displacement assay (ATP measurement, CellTiter-Glo); assay type: cell-based; details: ATP measurement in A2780 cells, 0.5 μM rotenone
Summary of the method: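 Cells were glucose-starved for 2 h in 1% FCS medium, then treated with compound in KRB buffer for 20 min at 37 °C with rotenone at 0.5 μM final. Glucose (typically 0.1–10 mM) was added for 15 min at 37 °C. ATP was measured by CellTiter-Glo luminescence.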

[2] = molecular target: T1, hGLUT1 protein (Homo sapiens, UniProt P11166); test: NanoBRET-based GLUT1-binding assay in HEK cells; details: for BRET interference signal using Glucose: check of HiBit-tagged GLUT1 HEK cell line, stereoselective signal
T1 construct: fused on or other part: 11-amino-acid HiBiT peptide tag (small part of nanoluciferase) inserted into the first extracellular loop of GLUT1
T1 sequence (P11166 1-492): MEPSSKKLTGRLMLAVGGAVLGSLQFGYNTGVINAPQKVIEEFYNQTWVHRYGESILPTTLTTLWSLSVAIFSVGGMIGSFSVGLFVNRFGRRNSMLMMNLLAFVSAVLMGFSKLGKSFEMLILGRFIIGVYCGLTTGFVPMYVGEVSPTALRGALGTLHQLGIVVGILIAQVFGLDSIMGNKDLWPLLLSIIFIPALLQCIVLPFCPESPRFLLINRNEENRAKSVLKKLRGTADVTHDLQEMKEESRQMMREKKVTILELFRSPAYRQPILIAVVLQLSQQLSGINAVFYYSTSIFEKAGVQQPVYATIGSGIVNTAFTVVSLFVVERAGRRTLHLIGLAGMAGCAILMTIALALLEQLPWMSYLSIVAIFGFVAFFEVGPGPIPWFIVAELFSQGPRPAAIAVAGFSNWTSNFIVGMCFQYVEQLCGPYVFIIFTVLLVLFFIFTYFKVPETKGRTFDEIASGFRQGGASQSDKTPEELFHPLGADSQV
Protocol: 3. NanoBRET-Based GLUT1-Binding Assays in HEK Cells
To measure binding of compounds to the hGLUT1 protein, the newly-developed NanoBRET platform from Promega is used. In this technology binding is measured via Foerster Resonance Energy Transfer. Foerster Resonance Energy Transfer is based on a direct, radiation-free energy transfer from donor to acceptor and can only take place when donor and acceptor are within nm distance. As donor energy the bioluminescence light of nanoluciferase is used, therefore this application is referred to as BRET (Bioluminescence Resonance Energy Transfer). Nanoluciferase is a protein that emits light when the appropriate substrate is available.
Nanoluciferase is attached to GLUT1 via protein complementation using the HiBit protein tagging system (Promega). […] The HiBit peptide tag is used as a landing pad for the so called Large Bit protein that is commercially available from Promega and added to the medium. Large Bit has a high affinity for HiBit tag resulting in protein complementation to a fully-functional nanoluciferase, which is used as energy donor in the NanoBRET assay system.
To obtain a HEK cell line expressing HiBit-tagged GLUT1, cells were transfected with the appropriate construct placed behind the tetracycline-inducible promoter (Flipin T-Rex system from Thermo Fisher, K650001) and a cell line was generated.
As NanoBRET acceptor a GLUT1 inhibitor described by Siebeneicher et al. (Siebeneicher H., Bauser M., Buchmann B., et al. Identification of novel GLUT inhibitors. Bioorganic & Medicinal Chemistry Letters 2016; 26(7):1732-7; compound 53) was reduced to the aminobenzyl derivative and coupled to the fluorophore NanoBRET618 (Promega) and is referred to as “Bayer+NB618”.
For the assay 50 μl with 7500 cells (HiBit-tagged GLUT1 HEK cells) are plated into 384 poly-D-lysine-coated black μClear plates (Greiner) in DMEM (Gibco 61966) medium supplemented with 10% tetracycline-free FCS (PAN P30-3602) and 300 ng/ml doxycycline (Sigma 9891) to induce the induction of the HiBit-tagged GLUT1 protein.
Incubation of Compound and Acceptor Molecule
After getting adherent by overnight incubation at 37° C. and 10% CO2, the medium is replaced by 10 μl imaging medium (1% BSA (Sigma A9576), 5 mM Hepes (Gibco 15630), 0.35 mM Na-bicarbonate (Gibco 11360-039), 1 mM Na-Pyruvate (Gibco 11360) in PBS buffer (Gibco14040)). 5 μl Bayer+NB618 (in imaging medium, final concentration 75 nM) is added and the plates are incubated for 15 minutes statically at room temperature.
A serial dilution of the test compounds is prepared in imaging medium and added in 10 μl to the respective wells. As a positive control for displacement values from wells incubated with 200 mM D-Glucose (Sigma G8769) are used. Plates are incubated for 30 minutes at room temperature without shaking.
Generating Luminescence and Measuring Fluorescence
This detection solution is made in the buffer provided. After addition of the detection reagent, the samples are incubated for 30 minutes without shaking and subsequently the luminescence and fluorescence emissions are measured simultaneously on the PHERAstar FSX (BMG Labtech) using the appropriate dual filter setup. This filter setup is made up of a 450-80 nm band pass filter to measure the donor signal peaking at 460 nm and a long pass filter starting at 610 nm to measure the fluorescence emission of NanoBRET 618, which peaks at 621 nm and continues beyond 700 nm.
From the raw luminescence and fluorescence values, the NanoBRET ratios are calculated, being the ratio of the fluorescence signal divided by the luminescence signal. Mean values are obtained from at least duplicates.
For percentage inhibition results, the mean value of the not-compound-treated cells is set as 0%. The mean BRET value of the cells treated with 200 mM glucose is used for maximal inhibition. All other mean values were calculated to this relation. […]

[3] = tested on: A2780 cells; test: Deoxy-glucose uptake assay in A2780 cells (14C 2-deoxy-D-glucose transport); assay type: cell-based; details: Homo sapiens, 20 min; inhibition of 14C 2-deoxy-D-glucose transport into A2780 cells; 20 min compound incubation; read-out: IC50
Summary of the method: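 Radiolabelled 2-deoxy-D-glucose transport over 20 min was scintillation-counted in A2780 cells, grown 48 h, after 20 min compound exposure in KRB. Untreated cells gave the 100% reference, with Cytochalasin B defining background. IC50 values were regressed from triplicate means across 7 or 14 concentrations.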

[4] = 1 mM glucose, read-out: IC50 [μM] at 1 mM glucose
[5] = 10 mM glucose, read-out: IC50 [μM] at 10 mM glucose
[6] = displacement of Bayer+NB618 (75 nM) from HiBit-tagged GLUT1 HEK cells, mean of measurements done twice in duplo, read-out: IC50

Row | Structure (SMILES) | IC50 [1, 4] [µM] | IC50 [1, 5] [µM] | IC50 [2, 6] [µM] | IC50 [3] [µM] | IC50 [2] [µM] | BRET interference signal using Glucose [2]
1 | COC(=O)c1ccn2cc(COc3cc(OC)c(C(=O)N[C@H]4[C@@H](OC)O[C@H](CO)[C@@H](O)[C@@H]4O)cc3Cl)nc2c1 [Example 416] | 1.64 | 22.4 | 9.77 | – | – | –
2 | CO[C@H]1O[C@H](CO)[C@@H](O)[C@H](O)[C@H]1NC(=O)c1cc(Cl)c(OCc2nc3ccccc3n2CCCCCCNC(=O)OC(C)(C)C)c(Cl)c1C [Example 305] | – | – | 2.83 | 0.1 | – | –
3 | O=C[C@H](O)[C@@H](O)[C@H](O)[C@H](O)CO [D-Glucose, reference compound] | – | – | – | – | 5330 ± 560 | decreases BRET
4 | CO[C@H]1O[C@H](CO)[C@@H](O)[C@H](O)[C@H]1OC(=O)c1cc(Cl)c(OCc2cccc(CNC(=O)OC(C)(C)C)c2)c(Cl)c1C [Example 202a] | – | – | 4.41 | 1.8 | – | –
5 | COc1cc(OCc2cccc(NC(=O)OC(C)(C)C)c2)c(Cl)cc1C(=O)N[C@H]1[C@H](OC)O[C@H](CO)[C@@H](O)[C@@H]1O [Example 415] | 3.07 | 9.21 | 8.3 | 0.7 | – | –
6 | C#CCCCn1c(COc2cc(OC)c(C(=O)O[C@@H]3[C@@H](O)[C@@H](OC)O[C@H](CO)[C@H]3O)cc2Cl)nc2ccccc21 [Example 367] | – | – | > 30 | 3.9 | – | –
7 | O=C[C@@H](O)[C@H](O)[C@@H](O)[C@@H](O)CO [L-Glucose, reference compound] | – | – | – | – | – | no effect on BRET
8 | C#CCCCn1c(COc2c(Cl)cc(C(=O)O[C@H]3[C@@H](OC)O[C@H](CO)[C@@H](O)[C@@H]3O)c(C)c2Cl)nc2ccccc21 [Example 212] | < 0.12 | 0.288 | 0.24 | 0.1 | – | –
9 | C#CCCCCCn1c(COc2c(Cl)cc(C(=O)O[C@H]3[C@@H](OC)O[C@H](CO)[C@@H](O)[C@@H]3O)c(C)c2Cl)nc2ccccc21 [Example 320] | 0.51 | 1.13 | 0.22 | 0.02 | – | –
10 | COC(=O)[C@H](CCC(=O)NCc1cccc(COc2c(Cl)cc(C(=O)O[C@H]3[C@@H](OC)O[C@H](CO)[C@@H](O)[C@@H]3O)c(C)c2Cl)c1)NC(=O)OC(C)(C)C [Example 306] | 1.86 | 7.95 | 0.19 | 3 | – | –
11 | C#CCCCn1c(COc2cc(OC)c(C(=O)N[C@H]3[C@@H](OC)O[C@H](CO)[C@@H](O)[C@@H]3O)cc2Cl)nc2ccccc21 [Example 328] | 0.56 | > 33 | 13.6 | 1.6 | – | –
12 | COc1cc(OCc2cccc(OCCCC(=O)OC(C)(C)C)c2)c(Cl)cc1C(=O)N[C@H]1[C@@H](OC)O[C@H](CO)[C@@H](O)[C@@H]1O [Example 393] | – | – | 17.2 | 0.9 | – | –
13 | COC(=O)/C=C/c1ccc(COc2cc(OC)c(C(=O)N[C@H]3[C@@H](OC)O[C@H](CO)[C@@H](O)[C@@H]3O)cc2Cl)cc1 [Example 370] | – | – | 6.98 | 0.4 | – | –
14 | COc1cc(OCc2ccc3c(c2)nnn3C)c(Cl)cc1C(=O)O[C@H]1[C@@H](OC)O[C@H](CO)[C@@H](O)[C@@H]1O [Example 340] | 0.35 | 4.55 | 9.49 | 0.4 | – | –
